“Also recorded” adds a separate entry of the source.
Legend:
B16F10 cells [1] = assay: Malignant melanoma B16 tumor xenograft study; type: in vivo, C57 mice; conditions: 5, 10 and 15 mg/kg intravenous once every other day for seven times; vs control P<0.01
Procedure: In Vivo Antitumor Activity (1) In Malignant Melanoma B16 Tumor Xenograft Study of Millepachine
Six-week-old female mice were obtained from Chinese Academy of Medical Science (Beijing, China). B16F10 cells (5×10^5 in 100 μl saline) were injected subcutaneously into the right flanks of C57 mice. When the tumor reached about 100 mm^3, mice were selected and randomly divided into four groups including control and three compounds-treated groups. The animals were intravenous injection with Millepachine (5, 10 and 15 mg/kg) or vehicle once every other day for seven times. Tumor burden was measured every 2 or 3 days with a caliper (calculated volume [mm^3]=π/6×length×width×width). After treatment, mice were killed tumors were collected and weighted.

tumor cells = assay: Cell proliferative assay (MTT), summary over tumor cells; type: cell-based; conditions: summary in words of Table 1, colon, liver, leukemia lines
Procedure: The synthesized compounds were evaluated for their cytotoxin activity against suspended tumor cells. These cells were seeded on 96-well plates and incubated for 24 h. Selected compounds were added at various doses and incubated for 72 h, MTT was then added, and the absorbance was measured at a wavelength of 590 nm. IC50 values are expressed as the mean±SEM from the dose-response curves of at least three independent experiments.

[2] = test system: several cancer cell lines; conditions: background statement; cited from earlier work
B16F10 cells [3] = assay: Malignant melanoma B16-induced lung metastasis; type: in vivo, C57 mice; conditions: 7.5 and 15 mg/kg intravenous once every other day for seven times
Procedure: (2) The Effect of Millepachine on the Malignant Melanoma B16-Induced Lung Metastasis
Six-week-old female mice were obtained from Chinese Academy of Medical Science (Beijing, China). B16F10 cells (5×10^5 in 100 μl saline) were injected intravenous into the caudal vein of C57 mice. The animals were intravenous injection with Millepachine (7.5 and 15 mg/kg) or vehicle once every other day for seven times after incubation of cell. After stop treatment for 20 days, mice were killed and lung metastasis was observed.

HCT116 = assay: Cell proliferative assay (MTT), HCT116; type: cell-based; conditions: Homo sapiens, HCT-116, 72 h incubation, read-out: IC50s HCT116
Procedure, shortened: (§1)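 Cells were seeded and allowed 24 h before exposure to test compounds at various doses for 72 h. Viability was read by MTT absorbance at 590 nm, and IC50 values were taken from dose-response curves as mean±SEM of at least three independent experiments.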

HeLa-C3 cells = conditions: background statement; cited from earlier work
K562 = assay: Cell proliferative assay (MTT), K562; type: cell-based; conditions: Homo sapiens, 72 h incubation, read-out: IC50s K562
Procedure, shortened: as §1

SW620 = assay: Cell proliferative assay (MTT), SW620; type: cell-based; conditions: Homo sapiens, SW-620, 72 h incubation, read-out: IC50s SW620
Procedure, shortened: as §1

HepG2 = assay: Cell proliferative assay (MTT), HepG2; type: cell-based; conditions: Homo sapiens, 72 h incubation, read-out: IC50s HepG2
Procedure, shortened: as §1

HT29 = assay: Cell proliferative assay (MTT), HT29; type: cell-based; conditions: Homo sapiens, HT-29, 72 h incubation, read-out: IC50s HT29
Procedure, shortened: as §1

HepG2 cells [4] = assay: Human hepatocarcinoma HepG2 xenograft (SKLBC-45 study); type: in vivo, Balb/c nude mice; conditions: 2.5, 5, 10, 20 mg/kg intravenous every three days for eight times; vs vehicle control
Procedure: (5) In Vivo Anti-Tumor Activity of SKLBC-45 on Human Hepatocarcinoma HepG2 Xenograft
Six-week-old Balb/c nude mice were obtained from Chinese Academy of Medical Science (Beijing, China). HepG2 cells (10^7 in 100 μl saline) were injected subcutaneously into the right flanks of the mice. 14 days after cell injection, seventy mice were selected and randomly divided into seven groups including saline control, vehicle control, four doses of SKLBC-45 (2.5, 5, 10, 20 mg/kg) and positive control Adriamycin (5 mg/kg). The animals were intravenously injected with saline, SKLBC-45, adriamycin or vehicle every three days for eight times. Tumor burden and animal body weight was measured every 2 or 3 days. The survival rate was also recorded. After treatment, mice were killed and tumors were collected and weighted.

SMMC-7221 = assay: Cell proliferative assay (MTT), SMMC-7221; type: cell-based; conditions: 72 h incubation, read-out: IC50s SMMC-7221
Procedure, shortened: as §1

A549 = assay: Cell proliferative assay (MTT), A549; type: cell-based; conditions: Homo sapiens, 72 h incubation, read-out: IC50s A549
Procedure, shortened: as §1

A375 = assay: Cell proliferative assay (MTT), A375; type: cell-based; conditions: Homo sapiens, A-375, 72 h incubation, read-out: IC50s A375
Procedure, shortened: as §1

LO2 = assay: Cell proliferative assay (MTT), LO2; type: cell-based; conditions: Homo sapiens, L02, 72 h incubation, read-out: IC50s LO2
Procedure, shortened: as §1

HepG2 cells [5] = assay: Human hepatocarcinoma HepG2 xenograft (SKLBC-76 study); type: in vivo, Balb/c nude mice; conditions: 2.5, 5, 10 mg/kg intravenous every three days for eight times; vs control
Procedure: (6) In Vivo Anti-Tumor Activity of SKLBC-76 on Human Hepatocarcinoma HepG2 Xenograft
Six-week-old Balb/c nude mice were obtained from Chinese Academy of Medical Science (Beijing, China). HepG2 cells (10^7 in 100 μl saline) were injected subcutaneously into the right flanks of the mice. 14 days after cell injection, fifty mice were selected and randomly divided into five groups including control, three doses of SKLBC-76 (2.5, 5, 10 mg/kg) and positive control taxol (5 mg/kg). The animals were intravenously injected with SKLBC-76 or taxol every three days for eight times. Tumor burden and animal body weight was measured every 2 or 3 days. The survival rate was also recorded. After treatment, mice were killed and tumors were collected and weighted.

C26 cells [6] = assay: C26-tumor bearing mice model (seven-compound study); type: in vivo, Balb/c mice; conditions: 10 mg/kg intravenous every two days for eight times; vs control
Procedure: (8) In Vivo Anti-Tumor Activity of SKLBC-45, SKLBC-68, SKLBC-74, SKLBC-75, SKLBC-76, SKLBC-79, SKLBC-80 on C26-Tumor Bearing Mice Model.
Six-week-old Balb/c mice were obtained from Chinese Academy of Medical Science (Beijing, China). C26 cells (3×10^6 in 100 μl saline) were injected subcutaneously into the right flanks of the mice. 10 days after cell injection, when the average tumor volume reached ˜60 mm^3. Fifty-four mice were selected and randomly divided into nine groups including saline control, seven compounds and positive control taxol (5 mg/kg). The treatment started one day later. The animals were intravenously injected with SKLBC-45, SKLBC-68, SKLBC-74, SKLBC-75, SKLBC-76, SKLBC-79, SKLBC-80 (all 10 mg/kg) or taxol every two days for eight times. Tumor burden and animal body weight was measured every 2 or 3 days. The survival rate was also recorded. After treatment, mice were killed and tumors were collected and weighted. The results were shown in FIGS. 15, 16, 17, 18, 19, 20 and 21.

C26 cells [7] = assay: C26-tumor bearing mice model (SKLBC-83 study); type: in vivo, Balb/c mice; conditions: 10 mg/kg intravenous every two days for eight times; vs control
Procedure: (7) In Vivo Anti-Tumor Activity of SKLBC-83 on C26-Tumor Bearing Mice Model.
Six-week-old Balb/c mice were obtained from Chinese Academy of Medical Science (Beijing, China). C26 cells (3×10^6 in 100 μl saline) were injected subcutaneously into the right flanks of the mice. 10 days after cell injection, thirty mice were selected and randomly divided into three groups including saline control, SKLBC-83 (10 mg/kg) and positive control taxol (5 mg/kg). The animals were intravenously injected with […] or taxol every two days for eight times. Tumor burden and animal body weight was measured every 2 or 3 days. The survival rate was also recorded. After treatment, mice were killed and tumors were collected and weighted.

Row | IC50 (HCT116) [µM] | IC50 (K562) [µM] | IC50 (SW620) [µM] | IC50 (HepG2) [µM] | IC50 (HT29) [µM] | IC50 (SMMC-7221) [µM] | IC50 (A549) [µM] | IC50 (A375) [µM] | SMILES | inhibitory activity against tumor cells (tumor cells) | IC50 (LO2) [µM] | other results
1 | > 10 | 3.02 | 2.25 | 4.28 | 3.79 | – | – | – | COc1ccc(C(=O)/C=C/c2ccc3ccccc3n2)c2c1C=CC(C)(C)O2 [SKLBC-16, (E)-1-(5-methoxy-2,2-dimethyl-2H-chromen-8-yl)-3-(quinolin-2-yl)prop-2-en-1-one] | better inhibitory activity | – | –
2 | > 10 | 7.77 | 3.52 | 2.61 | 3.73 | – | – | – | COc1ccc(C(=O)/C=C/c2ccc([N+](=O)[O-])cc2)c2c1C=CC(C)(C)O2 [SKLBC-17, (E)-1-(5-methoxy-2,2-dimethyl-2H-chromen-8-yl)-3-(4-nitrophenyl)prop-2-en-1-one] | better inhibitory activity | – | –
3 | 8.05 | 5.87 | 4.09 | 2.83 | 4.26 | – | – | – | COc1ccc(C(=O)/C=C/c2cccc([N+](=O)[O-])c2)c2c1C=CC(C)(C)O2 [SKLBC-18, (E)-1-(5-methoxy-2,2-dimethyl-2H-chromen-8-yl)-3-(3-nitrophenyl)prop-2-en-1-one] | better inhibitory activity | – | –
4 | 1.63 | 3.55 | 0.67 | 0.78 | 1.47 | – | – | – | COc1ccc(/C=C/C(=O)c2ccc(OC)c3c2OC(C)(C)C=C3)cc1O [SKLBC-28, (E)-3-(3-hydroxy-4-methoxyphenyl)-1-(5-methoxy-2,2-dimethyl-2H-chromen-8-yl)prop-2-en-1-one] | better inhibitory activity | – | –
5 | > 10 | 5.4 | 5 | 5.76 | 2.12 | – | – | – | COc1ccc(C(=O)/C=C/c2ccccn2)c2c1C=CC(C)(C)O2 [SKLBC-33, (E)-1-(5-methoxy-2,2-dimethyl-2H-chromen-8-yl)-3-(pyridin-2-yl)prop-2-en-1-one] | better inhibitory activity | – | –
6 | – | 0.522 | – | 0.148 | – | 0.61 | 0.36 | 0.62 | CCC(=O)Oc1ccc(C(=O)/C=C/c2ccc(N(CC)CC)cc2)c2c1C=CC(C)(C)O2 [SKLBC-45, (E)-8-(3-(4-(diethylamino)phenyl)acryloyl)-2,2-dimethyl-2H-chromen-5-yl propionate] | better inhibitory activity; also recorded: best inhibitory activity | 20 | average tumor weight (HepG2 cells [4]): significantly lower; growth of tumor (HepG2 cells [4]): significantly inhibited
7 | – | 0.164 | – | 0.103 | – | 2.15 | 0.475 | 0.443 | CCC(=O)Oc1cc(/C=C/C(=O)c2ccc(OC)c3c2OC(C)(C)C=C3)ccc1OC [SKLBC-76, (E)-2-methoxy-5-(3-(5-methoxy-2,2-dimethyl-2H-chromen-8-yl)-3-oxoprop-1-en-1-yl)phenyl propionate] | – | > 10 | average tumor weight (HepG2 cells [5]): significantly lower; growth of tumor (HepG2 cells [5]): significantly inhibited
8 | – | 0.246 | – | 0.042 | – | 0.278 | 0.285 | 0.111 | COc1ccc(/C=C/C(=O)c2ccc(OC)c3c2OC(C)(C)C=C3)cc1N [SKLBC-83, (E)-3-(3-amino-4-methoxyphenyl)-1-(5-methoxy-2,2-dimethyl-2H-chromen-8-yl)prop-2-en-1-one] | – | 8.5 | average tumor weight (C26 cells [6]): significantly lower; growth of tumor (C26 cells [6]): significantly inhibited; average tumor weight (C26 cells [7]): significantly lower; growth of tumor (C26 cells [7]): significantly inhibited

Row | SMILES | IC50 (HCT116) [µM] | IC50 (K562) [µM] | IC50 (SW620) [µM] | IC50 (HepG2) [µM] | IC50 (HT29) [µM] | IC50 (SMMC-7221) [µM] | IC50 (A549) [µM] | IC50 (A375) [µM] | inhibitory activity against tumor cells (tumor cells) | IC50 (LO2) [µM] | other results
9 | COc1ccc(/C=C/C(=O)c2ccc(OC)c3c2OC(C)(C)C=C3)cc1 [Millepachine, (E)-1-(5-methoxy-2,2-dimethyl-2H-chromen-8-yl)-3-(4-methoxyphenyl)prop-2-en-1-one] | 4.66 | 4.56 | 0.76 | 2.61 | 3.29 | – | – | – | better inhibitory activity | – | survivor time of tumor-bearing mice (B16F10 cells [1]): prolong the survivor time; tumor growth (B16F10 cells [1]): suppress tumor growth; inhibitory activity against tumor cells (tumor cells; listed as SKLBC-1): best inhibitory activity; cytotoxic effects against cancer cells [2]: significant cytotoxic and apoptotic effects; lung metastasis (B16F10 cells [3]): dose-dependently inhibited; also recorded: significantly inhibited; apoptotic effects against cancer cells (HeLa-C3 cells): significant cytotoxic and apoptotic effects
